PMC9029599, “Cytotoxicity and Antiviral Properties of Alkaloids Isolated from Pancratium maritimum” (Toxins, 2022)
Like-named read-outs stand apart in the source and are kept apart here.

Columns and labels:
[1] = Cytotoxicity in THP-1 cells (ATP levels, Cell-Titer GLO); conditions: human
Description: (§1) To account for non-specific antiviral activity caused by enhanced cell death, the cytotoxicity of P. maritimum isolated AAs was first determined in THP-1 and Huh7 virus-targeted cell lines exposed to concentrations ranging from 0.05 to 200 µM for 72 h. Cell viability was measured using ATP levels as a marker.
(§2) The monocytic cell line THP-1 derived from an acute monocytic leukemia patient was used in HIV-1GFP infection assays, while the hepatocyte-derived carcinoma cell line Huh7 was used with DENVGFP. Cell viability was evaluated using the Cell-Titer GLO assay kit (Promega, Madison, WI, USA) as previously described. Briefly, 7.5 × 10^3 Huh7 cells/well or 4 × 10^4 THP-1 cells/well were seeded in 96-well dark plates and treated with isolated AAs dissolved in methanol at concentrations ranging from 0.05 to 200 µM for 72 h. Afterwards, Cell-Titer GLO reagent was added in each well of room temperature-equilibrated plates. Luminescence was measured 10 min after shaking the plates for 2 min using a microplate spectrophotometer (Synergy H1, Biotek, Québec, QC, Canada). The percentage of viable cells was calculated at each concentration relatively to cells treated with matched concentrations of MetOH.

[2] = Cytotoxicity in Huh7 cells (ATP levels, Cell-Titer GLO); conditions: human
Description: as §1, §2

Huh7 cells = assay: as above
Description: as §1, §2

[3] = test system: VSV-G-pseudotyped HIV-1GFP; assay: cells; type: cell-based, human immunodeficiency virus-1; conditions: for EC50: read-out: EC50 HIVGFP
DENVGFP = assay: microbe, parasite or virus in culture; type: cell-based, dengue virus
THP-1 cells = assay: Cytotoxicity in THP-1 cells (ATP levels, Cell-Titer GLO); conditions: 72 h; for live THP-1 cells: 6.25 µM
Description: as §1, §2

AGS cells = assay: MTT viability test, AGS cells; type: cell-based; conditions: for IC50: Homo sapiens, AGS; for cytotoxic activity on AGS cells: in words; for effect on AGS cell viability: 0.5 to 50 µM, 24 and 48 h
Description: (§3) The potential cytotoxic activity of P. maritimum alkaloids was evaluated on Hacat, A431 and AGS cells treated with concentrations ranging from 0.5 to 10 µM for 24 and 48 h by measuring the reduction of 3-(4,5-dimethylthiazol-2) 2,5- diphenyltetrazolium bromide (MTT) to formazan by the mitochondrial enzyme succinate dehydrogenase.
(§4) HaCaT, spontaneously immortalized keratinocytes from adult skin, and AGS gastric adenocarcinoma cells were purchased from Service Cell Line (GmBH, Eppelheim, CLS, Germany). A431 (ATCC-CRL1555) human epidermoid carcinoma cells were from American Type Culture Collection (ATCC, Manassas, VA, USA). All mentioned cell lines were cultured in Dulbecco’s Modified Eagle’s Medium (DMEM, Sigma Chemical Co., St. Louis, MO, USA) supplemented with 10% fetal bovine serum (FBS, Hyclone Laboratories, Inc. Logan, UT, USA) at 37 °C in a humidified atmosphere of 5% CO2. Absence of mycoplasma contamination was verified for all cell lines. The purified alkaloids were resuspended in DMSO and added to the cell medium at concentrations varying from 0.5 to 50 µM as indicated.
Cell viability was evaluated by measuring the reduction of 3-(4,5-dimethylthiazol-2) 2,5-diphenyltetrazolium bromide (MTT) to formazan by the mitochondrial enzyme succinate dehydrogenase. Briefly, 10 × 10^3 cells were seeded on 96-well plates and exposed to different concentrations of total extract or metabolites for 48 h. and 72 h. MTT/PBS solution (0.5 mg/mL) was then added to the wells and incubated for 3 h at 37 °C in a humidified atmosphere. The reaction was stopped by removal of the supernatant followed by dissolving the formazan product in acidic isopropanol and the optical density was measured with Synergy H4 microplate reader Gen5 2.07 (Thermofisher, Waltham, MA, USA) using a 570 nm filter. Under these experimental conditions, no undissolved formazan crystals were observed. Cell viability was assessed by comparing the optical density of the treated samples compared to the controls. […] Data were represented as the mean standard deviation and analyzed for statistical significance using ordinary one-way analysis of variance (ANOVA) and multiple comparisons. For all tests, p < 0.05 was considered to indicate a statistically significant difference.

Hacat cells [4] = conditions: for reduction of Hacat cell viability: 10 µM, 24 h of treatment, MTT; for cytotoxic activity on Hacat cells: in words
Description: as §3, §4
(§5) Cell viability was evaluated by measuring the reduction of 3-(4,5-dimethylthiazol-2) 2,5-diphenyltetrazolium bromide (MTT) to formazan by the mitochondrial enzyme succinate dehydrogenase. Briefly, 10 × 10^3 cells were seeded on 96-well plates and exposed to different concentrations of total extract or metabolites for 48 h. and 72 h. MTT/PBS solution (0.5 mg/mL) was then added to the wells and incubated for 3 h at 37 °C in a humidified atmosphere. The reaction was stopped by removal of the supernatant followed by dissolving the formazan product in acidic isopropanol and the optical density was measured with Synergy H4 microplate reader Gen5 2.07 (Thermofisher, Waltham, MA, USA) using a 570 nm filter. Under these experimental conditions, no undissolved formazan crystals were observed. Cell viability was assessed by comparing the optical density of the treated samples compared to the controls. Statistical analyses were carried out using the GraphPad Prism version 8.1.2 (https://www.graphpad.com/scientific-software/prism/ (accessed on 18 December 2021)). Data were represented as the mean standard deviation and analyzed for statistical significance using ordinary one-way analysis of variance (ANOVA) and multiple comparisons. For all tests, p < 0.05 was considered to indicate a statistically significant difference.

A431 cells [5] = conditions: for reduction of A431 cell viability: 10 µM, 24 h of treatment, MTT; for cytotoxic activity on A431 cells: in words
Description: as §3, §4, §5

Hacat cells [6] = assay: cells; conditions: Homo sapiens, read-out: IC50 Hacat
Description: as §3, §4, §5

A431 cells [7] = assay: cells; conditions: Homo sapiens, A-431, read-out: IC50 A431
Description: as §3, §4, §5

[8] = Dengue virus, Huh-7, 72 h, read-out: EC50 DENVGFP, Huh7 cells, MOI = 0.02, 72 h
[9] = read-out: EC50 DENVGFP, Huh7 cells, MOI = 0.02, 72 h
[10] = Dengue virus, Huh-7, read-out: EC50 DENV, Huh7 cells
[11] = MTT, time not stated, read-out: IC50 AGS

## CO[C@@H]1C=C[C@@]23c4cc5c(cc4CN(CCc4ccc(O)cc4)[C@@H]2C(=O)N(C)[C@H]3C1)OCO5 [Obliquine]
[1]
  viability at 72 h, 100 µM: 55.3%
[1]; CC50 THP-1, 72 h, ATP levels
  CC50 at 72 h: 127 µM
[2]; Huh7 hepatocyte-derived carcinoma cells
  viability at 72 h, 100 µM: 82.6%
Huh7 cells; 72 h
  concentration at which Huh7 cell viability is reduced: 100 µM
[3]
  inhibition of HIV-1GFP, dose dependence: dose-dependent inhibition of HIV-1
[3]; Homo sapiens, THP-1, 72 h
  EC50: 153 µM
DENVGFP; [8]
  EC50: 73600 nM
DENVGFP; [9]
  EC50: 73600 nM

## Cc1nnc(C(=O)NC(C)(C)c2nc(C(=O)NCc3ccc(F)cc3)c(O)c(=O)n2C)o1 [Raltegravir, reference compound]
[3]
  HIV-1 infection with positive control: completely impeded HIV-1 infection

## COc1cc2c(cc1OC)[C@H]1[C@H]3C(=CC[C@H]1OC2=O)CCN3C [Homolycorine]
DENVGFP; [8]
  EC50: 65000 nM
DENVGFP; [9]
  EC50: 65000 nM

## OC1C=C2C3CN(Cc4cc5c(cc43)OCO5)C2CC1O (centres unmarked) [Pancracine]
[1]; CC50 THP-1, 72 h, ATP levels
  CC50 at 72 h: 25.9 µM
THP-1 cells
  live THP-1 cells: 82%
  concentration at which THP-1 cell viability begins to decrease: 3.125 µM
Huh7 cells; 6.25 µM, 72 h
  live Huh7 cells: 78.1%
Huh7 cells; 72 h
  concentration at which Huh7 cell viability is reduced: 6.25 µM
[3]
  HIV-1GFP inhibition at 100 µM: Complete viral inhibition
  inhibition of HIV-1GFP, dose dependence: dose-dependent inhibition of HIV-1
  EC50: 18.5 µM
[3]; Homo sapiens, THP-1, 72 h
  EC50: 18.5 µM
DENVGFP; Huh7 cells
  DENVGFP inhibition at 1.56 µM: Complete inhibition
DENVGFP; [8]
  EC50: 358 nM
DENVGFP; [10]
  EC50: 357 nM
DENVGFP; [9]
  EC50: 360 nM

## OC1C=CC23c4cc5c(cc4CN(CC2O)C3C1)OCO5 (centres unmarked) [11-Hydroxyvittatine]
[1]
  viability at 72 h, 100 µM: 52.3%
[1]; CC50 THP-1, 72 h, ATP levels
  CC50 at 72 h: 113 µM
[2]
  viability at 72 h, 50 µM: 73.8%
Huh7 cells; 72 h
  concentration at which Huh7 cell viability is reduced: higher than 50 µM
[3]
  inhibition of HIV-1GFP, dose dependence: dose-dependent inhibition of HIV-1
[3]; Homo sapiens, THP-1, 72 h
  EC50: 65.1 µM
DENVGFP; [8]
  EC50: 3920 nM

## COC1C=CC23c4cc5c(cc4CN(CC2O)C3C1)OCO5 (centres unmarked) [Haemanthamine]
AGS cells; 24 h, read-out: IC50 AGS cells at 24 h
  IC50: 7.5 µM
AGS cells; MTT, 48 h, read-out: IC50 AGS cells at 48 h
  IC50: 7.5 µM
AGS cells; [11]
  IC50: 7.5 µM
[1]; CC50 THP-1, 72 h, ATP levels
  CC50 at 72 h: 22.2 µM
THP-1 cells
  live THP-1 cells: 71%
  concentration at which THP-1 cell viability begins to decrease: 3.125 µM
THP-1 cells; read-out: CC50 THP-1, ATP levels
  CC50: 22.2 µM
Huh7 cells; 3.125 µM, 72 h
  live Huh7 cells: 82.2%
Huh7 cells; 72 h
  concentration at which Huh7 cell viability is reduced: above 3.125 µM
[3]
  HIV-1GFP inhibition at 100 µM: Complete viral inhibition
  inhibition of HIV-1GFP, dose dependence: dose-dependent inhibition of HIV-1
  EC50: 25.3 µM
[3]; Homo sapiens, THP-1, 72 h
  EC50: 25.3 µM
DENVGFP; Huh7 cells
  DENVGFP inhibition at 1.56 µM: Complete inhibition
DENVGFP; [8]
  EC50: 340 nM
DENVGFP; [10]
  EC50: 337 nM
Hacat cells [4]
  reduction of Hacat cell viability: 15–30%
A431 cells [5]
  reduction of A431 cell viability: 15–30%

## O[C@H]1[C@H]2c3cc4c(cc3CN3CCC(=C[C@@H]1O)[C@H]23)OCO4 [Lycorine]
AGS cells; [11]
  IC50: < 0.5 µM
AGS cells
  cytotoxic activity on AGS cells: showed cytotoxic activity
[1]; CC50 THP-1
  CC50 at 72 h: 4.6 µM
THP-1 cells; human
  CC50: 4.61 µM
Huh7 cells; 0.78 µM, 72 h
  reduction of Huh7 viability: 21%
Huh7 cells; 1.56 µM
  reduction of Huh7 cell viability: 25%
[3]
  HIV-1GFP inhibition at 100 µM: Complete viral inhibition
  inhibition of HIV-1GFP, dose dependence: dose-dependent inhibition of HIV-1
[3]; Homo sapiens, THP-1, 72 h
  EC50: 10.9 µM
DENVGFP; Huh7 cells
  DENVGFP inhibition at 1.56 µM: Complete inhibition
DENVGFP; [8]
  EC50: 386 nM
DENVGFP; [9]
  EC50: 390 nM
Hacat cells [4]
  cytotoxic activity on Hacat cells: showed cytotoxic activity
A431 cells [5]
  cytotoxic activity on A431 cells: showed cytotoxic activity
Hacat cells [6]
  IC50: 500 nM
A431 cells [7]
  IC50: 500 nM

## COC1C=CC23c4cc5c(cc4C(OC(=O)c4ccc(Br)cc4)N(CC2OC(=O)c2ccc(Br)cc2)C3C1)OCO5 (centres unmarked) [compound 12, 6,11-O,O′-Di-p-Bromobenzoyl Ester of haemanthidine]
AGS cells; MTT
  effect on AGS cell viability: able to reduce AGS cell viability

## CO[C@@H]1C=C[C@@]23c4cc5c(cc4C(O)N(C[C@@H]2O)[C@H]3C1)OCO5 (some centres unmarked) [Haemanthidine]
AGS cells; [11]
  IC50: 5 µM
AGS cells
  cytotoxic activity on AGS cells: showed cytotoxic activity
[1]; CC50 THP-1, 72 h, ATP levels
  CC50 at 72 h: 16.8 µM
THP-1 cells
  live THP-1 cells: 71%
  concentration at which THP-1 cell viability begins to decrease: 3.125 µM
Huh7 cells; 6.25 µM, 72 h
  live Huh7 cells: 83.3%
Huh7 cells; 72 h
  concentration at which Huh7 cell viability is reduced: 6.25 µM
[3]
  HIV-1GFP inhibition at 100 µM: Complete viral inhibition
  inhibition of HIV-1GFP, dose dependence: dose-dependent inhibition of HIV-1
  EC50: 12.7 µM
[3]; Homo sapiens, THP-1, 72 h
  EC50: 12.7 µM
DENVGFP; Huh7 cells
  DENVGFP inhibition at 1.56 µM: Complete inhibition
DENVGFP; [8]
  EC50: 480 nM
DENVGFP; [10]
  EC50: 476 nM
Hacat cells [4]
  reduction of Hacat cell viability: 15–30%
  cytotoxic activity on Hacat cells: showed cytotoxic activity
A431 cells [5]
  reduction of A431 cell viability: 15–30%
  cytotoxic activity on A431 cells: showed cytotoxic activity

## COC1C=CC23c4cc5c(cc4C(OC(=O)c4ccc(Br)cc4)N(CC2OC(=O)c2ccc(Br)cc2)C3C1)OCO5 (centres unmarked) [compound 11, 6,11-O,O′-Di-p-Bromobenzoyl Ester of haemanthidine]
AGS cells; MTT
  effect on AGS cell viability: able to reduce AGS cell viability

## CO[C@@H]1C=C[C@@]23c4cc5c(cc4CO[C@]2(O)CN(C)[C@H]3C1)OCO5 [Tazettine]
[1]
  viability at 72 h, 100 µM: 60.9%
[1]; CC50 THP-1, 72 h, ATP levels
  CC50 at 72 h: 137 µM
[2]
  viability at 72 h, 50 µM: 85.2%
Huh7 cells; human, 72 h
  concentration at which Huh7 cell viability is reduced: higher than 50 µM
[3]
  inhibition of HIV-1GFP, dose dependence: dose-dependent inhibition of HIV-1
[3]; Homo sapiens, THP-1, 72 h
  EC50: 120 µM
DENVGFP; [8]
  EC50: 12500 nM
Hacat cells [4]
  reduction of Hacat cell viability: 15–30%
A431 cells [5]
  reduction of A431 cell viability: 15–30%

## O[C@@H]1C=C[C@]23CCN(Cc4cc5c(cc42)OCO5)[C@H]3C1 [Vittatine]
DENVGFP; [8]
  EC50: 15500 nM
